According to patent publication US20110071150A1 (priority 2009, published 2011):

Test system: Jurkat IL-2 Production
Assay: Jurkat IL-2 Production Assay
Format: cell-based
Details: Homo sapiens, Jurkat cell (ATCC), 18-20 h incubation, PHA 5 μg/mL with 1% FBS, or PMA/Ionomycin with 30% FBS (table does not say which)
In short: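 Jurkat cells were exposed to compound (0.25% DMSO final) for 10 min, then stimulated for 18–20 h at 37 °C. The 1% FBS condition used 5 μg/mL PHA; the high-serum condition (30% FBS) used 50 ng/mL PMA plus 500 ng/mL ionomycin. IC50 was derived from IL-2 production.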

SMILES	IC50 [nM]
COC(=O)c1ccc(-c2ccc3[nH]c(-c4ccc(C(=O)OC)cc4C)cc3c2)c(C)c1 [Example 131, 4-[5-(4-carbomethoxy-2-methyl-phenyl)-1H-indol-2-yl]-3-methyl-benzoic acid methyl ester]	149
COc1ccc(-c2cc3cc(-c4ccc(C#N)cc4C)ccc3[nH]2)c(Cl)c1 [Example 132, 4-[2-(2-Chloro-4-methoxy-phenyl)-1H-indol-5-yl]-3-methyl-benzonitrile]	319
Cc1cc(C#N)ccc1-c1ccc2[nH]c(-c3ccc(S(C)(=O)=O)cc3F)cc2c1 [Example 133, 4-[2-(2-Fluoro-4-methanesulfonyl-phenyl)-1H-indol-5-yl]-3-methyl-benzonitrile]	976
Cc1cc(C#N)ccc1-c1ccc2[nH]c(-c3cccc(C#N)c3F)cc2c1 [Example 134, 4-[2-(2-Fluoro-3-cyano-phenyl)-1H-indol-5-yl]-3-methyl-benzonitrile]	163
COc1cc(F)c(-c2cc3cc(-c4ccc(C#N)cc4C)ccc3[nH]2)c(F)c1 [Example 135, 4-(2-(2,6-difluoro-4-methoxyphenyl)-1H-indol-5-yl)-3-methylbenzonitrile]	283
Cc1cc(C#N)ccc1-c1ccc2[nH]c(-c3ccccc3F)cc2c1 [Example 136, 4-(2-(2-fluorophenyl)-1H-indol-5-yl)-3-methylbenzonitrile]	370
Cc1cc(C#N)ccc1-c1ccc2[nH]c(-c3ccc(C#N)cc3C)cc2c1 [Example 137, 4-(2-(4-Cyano-2-methylphenyl)-1H-indol-5-yl)-3-methylbenzonitrile]	132
COc1ccc(-c2cc3cc(-c4ccc(C#N)cc4C)ccc3[nH]2)c(C)n1 [Example 139, 4-(2-(6-methoxy-2-methylpyridin-3-yl)-1H-indol-5-yl)-3-methylbenzonitrile]	162
COc1nccc(-c2cc3cc(-c4ccc(C#N)cc4C)ccc3[nH]2)c1Cl [Example 140, 4-(2-(3-chloro-2-methoxypyridin-4-yl)-1H-indol-5-yl)-3-methylbenzonitrile]	142
Cc1cc(C#N)ccc1-c1ccc2[nH]c(-c3ccc(F)cc3F)cc2c1 [Example 141, 4-(2-(2,4-difluorophenyl)-1H-indol-5-yl)-3-methylbenzonitrile]	660
COc1ccc(F)c(-c2cc3cc(-c4ccc(C#N)cc4C)ccc3[nH]2)c1F [Example 142, 4-(2-(2,6-difluoro-3-methoxyphenyl)-1H-indol-5-yl)-3-methylbenzonitrile]	167
COc1cc(C)c(-c2cc3cc(-c4ccc(C#N)cc4C)ccc3[nH]2)cn1 [Example 143, 4-(2-(6-methoxy-4-methylpyridin-3-yl)-1H-indol-5-yl)-3-methylbenzonitrile]	182
Cc1cc(C#N)ccc1-c1ccc2[nH]c(-c3sccc3C)cc2c1 [Example 146, methyl-4-(2-(3-methylthiophen-2-yl)-1H-indol-5-yl)benzonitrile]	150
Cc1cc(C#N)ccc1-c1ccc2[nH]c(-c3cccnc3C)cc2c1 [Example 147, methyl-4-(2-(2-methylpyridin-3-yl)-1H-indol-5-yl)benzonitrile]	311
Cc1nc(C)c(-c2cc3cc(-c4ccc(C#N)cc4C)ccc3[nH]2)s1 [Example 148, 4-(2-(2,4-dimethylthiazol-5-yl)-1H-indol-5-yl)-3-methylbenzonitrile]	547
Cc1cc(C#N)ccc1-c1ccc2[nH]c(-c3cscc3C)cc2c1 [Example 149, methyl-4-(2-(4-methylthiophen-3-yl)-1H-indol-5-yl)benzonitrile]	286
Cc1cc(C#N)ccc1-c1ccc2[nH]c(-c3ccnn3C)cc2c1 [Example 150, methyl-4-(2-(1-methyl-1H-pyrazol-5-yl)-1H-indol-5-yl)benzonitrile]	618
Cc1cc(C#N)ccc1-c1ccc2[nH]c(-c3c(C)noc3C)cc2c1 [Example 151, 4-(2-(3,5-dimethylisoxazol-4-yl)-1H-indol-5-yl)-3-methylbenzonitrile]	158
COc1cc(C)c(-c2ccc3[nH]c(-c4cccc(C#N)c4F)cc3c2)cn1 [Example 152, 2-fluoro-3-(5-(6-methoxy-4-methylpyridin-3-yl)-1H-indol-2-yl)benzonitrile]	731
COCCOc1cc(F)c(-c2cc3cc(-c4ccc(C#N)cc4C)ccc3[nH]2)c(F)c1 [Example 153, 4-(2-(2,6-difluoro-4-(2-methoxyethoxy)phenyl)-1H-indol-5-yl)-3-methylbenzonitrile]	331
Cc1cc(C#N)ccc1-c1ccc2[nH]c(-c3c(F)cc(OCCO)cc3F)cc2c1 [Example 154, 4-(2-(2,6-difluoro-4-(2-hydroxyethoxy)phenyl)-1H-indol-5-yl)-3-methylbenzonitrile]	586
Cc1cc(C#N)ccc1-c1ccc2[nH]c(-c3c(F)cc(O)cc3F)cc2c1 [Example 157, 4-(2-(2,6-difluoro-4-hydroxyphenyl)-1H-indol-5-yl)-3-methylbenzonitrile]	222

Further compounds by falling IC50, results first:

IC50 [nM]	SMILES
130	Cc1cc(C#N)ccc1-c1ccc2[nH]c(-c3c(F)cc(OCCCO)cc3F)cc2c1 [Example 156, 4-(2-(2,6-difluoro-4-(3-hydroxypropoxy)phenyl)-1H-indol-5-yl)-3-methylbenzonitrile]
101	Cc1cc(C#N)ccc1-c1ccc2[nH]c(-c3cc(C#N)ccc3Cl)cc2c1 [Example 138, 4-(2-(2-Chloro-5-cyanophenyl)-1H-indol-5-yl)-3-methylbenzonitrile]
99	Cc1cc(C#N)cnc1-c1ccc2[nH]c(-c3c(F)cccc3Cl)cc2c1 [Example 161, 6-(2-(2-chloro-6-fluorophenyl)-1H-indol-5-yl)-5-methylnicotinonitrile]
96	Cc1cc(C#N)ccc1-c1ccc2[nH]c(-c3cnccc3C)cc2c1 [Example 144, methyl-4-(2-(4-methylpyridin-3-yl)-1H-indol-5-yl)benzonitrile]
89	Cc1cc(C#N)ccc1-c1ccc2[nH]c(-c3ccncc3C)cc2c1 [Example 145, methyl-4-(2-(3-methylpyridin-4-yl)-1H-indol-5-yl)benzonitrile]
87	Cc1cc(C#N)ccc1-c1ccc2[nH]c(-c3c(F)cc(OCCCC#N)cc3F)cc2c1 [Example 155, 4-(2-(4-(3-cyanopropoxy)-2,6-difluorophenyl)-1H-indol-5-yl)-3-methylbenzonitrile]
34	Cc1cc(C#N)ncc1-c1ccc2[nH]c(-c3c(F)cccc3Cl)cc2c1 [Example 162, 5-(2-(2-chloro-6-fluorophenyl)-1H-indol-5-yl)-4-methylpicolinonitrile]
25	Cc1cc(S(=O)(=O)N(C)C)ccc1-c1ccc2[nH]c(-c3c(F)cccc3Cl)cc2c1 [Example 159, 4-[2-(2-Chloro-6-fluoro-phenyl)-1H-indol-5-yl]-3,N,N-trimethyl-benzenesulfonamide]
18	Cc1cc(Cl)ncc1-c1ccc2[nH]c(-c3c(F)cccc3Cl)cc2c1 [Example 160, 2-(2-Chloro-6-fluoro-phenyl)-5-(6-chloro-4-methyl-pyridin-3-yl)-1H-indole]
16	Cc1cc(C#N)ccc1-c1ccc2[nH]c(-c3c(F)cccc3Cl)cc2c1 [Example 158, 4-[2-(2-chloro-6-fluorophenyl)-1H-indol-5-yl]-3-methylbenzonitrile]
